# Entries after “also recorded” stand apart in the source; their conditions may differ.
# What was measured:
# [1] = Screening of F8 related organic salts (crystallinity, hygroscopicity, solubility, stability, irritability); format: physicochemical; conditions: salt screening
# Source text: The selection of salt form is a key step to the success of drug development, which requires a well-designed screening strategy to find the salt form that meets the target performance. Although there are many kinds of counter ions, the commonly used ones are very limited.
# [2] = test system: HCC-1937; assay: MTT cytotoxicity / anti-proliferation assay; format: cell-based; conditions: HCC-1937, MTT, 72 h; read-out: IC50, cancer cell viability
# [3] = test system: MDA-MB-231; assay: MTT cytotoxicity / anti-proliferation assay; format: cell-based; conditions: MDA-MB-231, MTT, 72 h; read-out: IC50, cancer cell viability
# [4] = test system: HCT-116; assay: MTT cytotoxicity / anti-proliferation assay; format: cell-based; conditions: HCT-116, MTT, 72 h; read-out: IC50, cancer cell viability
# [5] = In vivo acute toxicity study; set-up: species or system Kunming mice; conditions: for LD50 at 14 days: both sexes, Kunming, mouse, in vivo
# Method: We investigated the toxicity of F8·2HCl when administered in three different ways, and F8·2HCl was all dissolved with normal saline, and the concentration of intravenous and intraperitoneal injection was 8 mg/mL, and the concentration of intragastric administration was 10 mg/mL. Ninety Kunming mice (45 males and 45 females) weighing 18–22 g were divided into 15 groups (n = 6). The doses of F8·2HCl injected by tail vein were 40 mg/kg, 60 mg/kg, 90 mg/kg, 110 mg/kg, 135 mg/kg, 200 mg/kg, 300 mg/kg, 400 mg/kg and 500 mg/kg, respectively. Intraperitoneal injection of different doses of F8·2HCl were 200 mg/kg, 250 mg/kg, 300 mg/kg, 360 mg/kg and 500 mg/kg, respectively. We also added a dose of 600 mg/kg administered by gavage. All drugs administered were dissolved in normal saline. Toxicity was monitored for 14 days. During the monitoring period, the status of mice was observed and their body weight was recorded.
# To evaluate the safety of F8·2HCl in vivo, acute toxicity studies were performed. First, six Kunming mice (half male and half female) were gavage with F8·2HCl at a single dose of 600 mg/kg.
# [6] = test system: HuH7; assay: MTT cytotoxicity / anti-proliferation assay; format: cell-based; conditions: 72 h, read-out: IC50, cancer cell viability
structure (smiles),measurement,setting,value
O=C(NCc1ccc(NC(=O)c2cc(F)ccc2N2CCCC2)cc1)OCc1cccnc1 [F8·2HCl],Crystalline,[1],crystallization
same,Hygroscopic,[1],Almost no moisture absorption
same,Stability,[1],"remain stable under high temperature (80°C), acid, alkaline, oxidation and reduction conditions; also recorded: Keep stable in extreme environment"
same,Solubility,[1]; water,Soluble
same,IC50,[2],48.81 ± 0.18 µM
same,IC50,[3],47 ± 0.62 µM
same,IC50,[4],4.02 ± 0.28 µM
same,"HE staining of heart, liver, spleen, lung, kidney",[5]; 200 mg/kg intraperitoneal injection,intact without any lesions
same,"HE staining of heart, liver, spleen, lung, kidney",[5]; 600 mg/kg oral administration,intact without any lesions
same,LD50 at 14 days,"[5]; ip, intraperitoneal injection, KM mice, 14 days",303 mg/kg
same,LD50 at 14 days,"[5]; intravenous injection, KM mice, 14 days",153 mg/kg
same,survival and abnormal reactions,"[5]; single dose 600 mg/kg by gavage, KM mice, 14 days",All the mice survived 14 days without any abnormal reactions
same,IC50,[6],10.9 ± 0.97 µM

# Reference: publication PMC10368370, “Development of o-aminobenzamide salt derivatives for improving water solubility and anti-undifferentiated gastric cancer” (Frontiers in Pharmacology, 2023)
